US10000452B1, “Quinolone-based compounds, formulations, and uses thereof” (University of South Florida, priority 2016, dated 2018)
pEC50: −log10 of the molar value. In brackets after ≈: the same amount, converted by molar mass. Where two headings read alike, the source gives them in different places.

Assays:
[1] = lipophilicity log D at pH 7.4; assay type: physicochemical; conditions: octanol/water
Excerpt: (§1) Furthermore, to profile the properties of the piperazinyl-4(1H)-quinolones, and to identify potential limitations, aqueous solubility and lipophilicity log D were experimentally determined via LC/MS-based assays as described by the Manetsch laboratory previously^8,10,31,32 (Tables 9-12). Encouragingly, the piperazinyl-4(1H)-quinolones were much more soluble than the previously described phenoxyethoxy-4(1H)-quinolone analogues.^19 As expected, the solubility of all compounds was affected by pH, with better solubility under more acidic conditions.
(§2) In parallel to testing the compounds for in vitro antimalarial activity, a limited structure-property relationship (SPR) study focusing on log D and aqueous solubility was conducted to assess potential physiochemical liabilities (FIG. 22). […] For these reasons, physicochemical properties were not strongly considered as selection criteria for in vivo efficacy studies.

[2] = aqueous solubility (LC/MS- or HPLC-based assay); assay type: physicochemical
Excerpt: as §1, §2

[3] = tested on: malarial strain W2 (pyrimethamine and chloroquine-resistant); assay: in vitro antimalarial activity against multidrug resistant strain W2; assay type: cell-based, P. falciparum; conditions: for EC50: Plasmodium falciparum, read-out: EC50 W2 (nM)
Pb-infected mice = assay: in vivo efficacy scouting assay against blood stages; set-up: species or system P. berghei; mice; conditions: for % Inhibition Day 6 PI: vs untreated animals; for % inhibition on day 6 PE: Example 2: two mice, single 50 mg/kg oral dose in PEG400 on day 1 PE
Method: The screening involved a single oral 50 mg/kg dose 1 day post infection (PI) and an assessment of parasitemia on days 3 PI and 6 PI (Table 6).
The screening was performed by treating two infected mice with a single 50 mg/kg oral dose of test compound suspended in PEG400 on day 1 postexposure (PE) followed by assessing parasitemia on days 3 and 6 PE.

J774 mammalian cells = assay: cytotoxicity to J774 cells; assay type: cell-based; conditions: Mus musculus; for EC50: J774, read-out: EC50 J774 (μM)
Method: This allowed a simplified method for comparing the different assays being simultaneously run. Additionally, each compound was also tested for cytotoxicity using mammalian J774 cell lines in a 96-well plate format.^12-14, 16

[4] = tested on: malarial strain TM90-C2B (mefloquine, chloroquine, atovaquone, and pyrimethamine-resistant); assay: microbe, parasite or virus in culture; assay type: cell-based, P. falciparum; conditions: for EC50: Plasmodium falciparum, TM90, read-out: EC50 TM90-C2B (nM); for RI: RI = EC50 TM90-C2B/EC50 W2
Excerpt: Ideally, the RI of a compound should lie between 0.3 and 3.0 in order to avoid rapidly inducing resistance in the parasite. […]

[5] = tested on: P. berghei sporozoites expressing luciferase; assay: in vitro liver stage activity, luciferase sporozoites infecting HEPG2 hepatoma cells; assay type: cell-based; conditions: HEPG2 cells
[6] = aqueous solution (buffer not named), pH 2, simulated gastric fluid, pH 2.0, read-out: Solubility pH 2.0
[7] = aqueous solution (buffer not named), pH 6.5, aqueous buffer, pH 6.5, read-out: Solubility pH 6.5
[8] = single oral 50 mg/kg dose 1 day PI
[9] = aqueous medium, pH 2, simulated gastric fluid, pH 2.0, read-out: Solubility pH 2.0
[10] = aqueous medium, pH 6.5, aqueous buffer, pH 6.5, read-out: Solubility pH 6.5

O=c1c(Cl)c[nH]c2cc(CN3CCN(c4ccc(F)cc4)CC3)ccc12 [Compound 8al, 3-Chloro-7-((4-(4-fluorophenyl)piperazin-1-yl)methyl)quinolin-4(1H)-one]
chromatographic logD [1]: 2.57 | solubility [2, 6]: ≥ 80 µM | solubility [2, 7]: 40 to 59.9 µM (≈ 14.9 to 22.3 µg/mL) | EC50 [3]: 1060 nM | activities in these scout assays (Pb-infected mice; single oral 50 mg/kg dose 1 day PI, result in words): excellent activities | % Inhibition Day 6 PI (Pb-infected mice; [8]): 71.9% | EC50 (J774 mammalian cells): > 20 µM | EC50 [4]: 2290 nM

Cc1cc(=O)c2ccc(CN3CCN(c4ccc(F)cc4)CC3)cc2[nH]1 [Compound 8am, 7-((4-(4-Fluorophenyl)piperazin-1-yl)methyl)-2-methylquinolin-4(1H)-one]
chromatographic logD [1]: 2.44 | solubility [2, 6]: ≥ 80 µM | solubility [2, 7]: ≥ 80 µM | EC50 [3]: 1220 nM | EC50 (J774 mammalian cells): > 20 µM | EC50 [4]: 1450 nM | RI [4]: 1.19

CCCCc1cc2c(=O)c(CC)c[nH]c2cc1OCCOc1ccccc1 [Compound 6ae, 6-Butyl-3-ethyl-7-(2-phenoxyethoxy)quinolin-4(1H)-one]
EC50 [3]: 0.44 nM | % inhibition on day 6 PE (Pb-infected mice): lack of significant parasitemia reduction | pEC50 (J774 mammalian cells; J774, read-out: EC50 J774): 6.44 | pEC50 ([5]; Plasmodium berghei): 8.58 | EC50 [4]: 1.92 nM | RI [4]: 4.36

COC(=O)c1c[nH]c2cc(OCCCc3ccccc3)ccc2c1=O [Compound 6j, Methyl 4-Oxo-7-(3-phenylpropoxy)-1,4-dihydroquinoline-3-carboxylate]
EC50 [3]: 0.711 nM | % inhibition on day 6 PE (Pb-infected mice): 47.1% | pEC50 ([5]; Plasmodium berghei): 8.28

COC(=O)c1c[nH]c2ccc(CN3CCN(c4ccc(F)cc4)CC3)cc2c1=O [Compound 8ah, Methyl 6-((4-(4-fluorophenyl)piperazin-1-yl)methyl)-4-oxo-1,4-dihydroquinoline-3-carboxylate]
chromatographic logD [1]: 2.17 | solubility [2, 6]: ≥ 80 µM | solubility [2, 7]: ≥ 80 µM | EC50 [3]: 106 nM | EC50 (J774 mammalian cells): > 20 µM | EC50 [4]: 2900 nM | RI [4]: 27.4

COC(=O)c1c[nH]c2cc(N3CCN(Cc4ccccc4)CC3)c(OC)cc2c1=O [Compound 8h, Methyl 7-(4-benzylpiperazin-1-yl)-6-methoxy-4-oxo-1,4-dihydroquinoline-3-carboxylate]
chromatographic logD [1]: 2.03 | solubility [2, 9]: 60 to 79.9 µM (≈ 24.4 to 32.6 µg/mL) | solubility [2, 10]: 40 to 59.9 µM (≈ 16.3 to 24.4 µg/mL) | EC50 [3]: 63.5 nM | EC50 (J774 mammalian cells): 12.4 µM

COC(=O)c1c[nH]c2cc(CN3CCN(Cc4ccc5c(c4)OCO5)CC3)ccc2c1=O [Compound 8m, Methyl 7-((4-(benzo[d][1,3]dioxol-5-ylmethyl)piperazin-1-yl)methyl)-4-oxo-1,4-dihydroquinoline-3-carboxylate]
chromatographic logD [1]: 0.87 | solubility [2, 9]: ≥ 80 µM | solubility [2, 10]: ≥ 80 µM | EC50 [3]: 157 nM | EC50 (J774 mammalian cells): > 20 µM | EC50 [4]: > 5740 nM | RI [4]: >36.6

COC(=O)c1c[nH]c2cc(CN3CCN(Cc4ccc(OC)cc4)CC3)c(OC)cc2c1=O [Compound 8y, Methyl 6-methoxy-7-((4-(4-methoxybenzyl)piperazin-1-yl)methyl)-4-oxo-1,4-dihydroquinoline-3-carboxylate]
EC50 [3]: 9.97 nM | % Inhibition Day 6 PI (Pb-infected mice; [8]): little to moderate protection | EC50 (J774 mammalian cells): > 20 µM | pEC50 ([5]; Plasmodium berghei): 7.28 | EC50 [4]: 2750 nM

COC(=O)c1c[nH]c2ccc(OCc3ccccc3)cc2c1=O [Compound 6e, Methyl 6-(Benzyloxy)-4-oxo-1,4-dihydroquinoline-3-carboxylate]
EC50 [3]: 11.6 nM | pEC50 ([5]; Plasmodium berghei): 6.90 | EC50 [4]: 1100 nM

COC(=O)c1c[nH]c2cc(CN3CCN(Cc4ccc(OC)cc4)CC3)c(C)cc2c1=O [Compound 8s, Methyl 7-((4-(4-methoxybenzyl)piperazin-1-yl)methyl)-6-methyl-4-oxo-1,4-dihydroquinoline-3-carboxylate]
chromatographic logD [1]: 2.03 | solubility [2, 9]: ≥ 80 µM | solubility [2, 10]: ≥ 80 µM | EC50 [3]: 2.4 nM | % Inhibition Day 6 PI (Pb-infected mice; [8]): little to moderate protection | EC50 (J774 mammalian cells): > 20 µM | EC50 [4]: 1020 nM | RI [4]: 426

COC(=O)c1c[nH]c2cc(CCN3CCN(c4ccccc4)CC3)ccc2c1=O [Compound 8ac, Methyl 4-oxo-7-(2-(4-phenylpiperazin-1-yl)ethyl)-1,4-dihydroquinoline-3-carboxylate]
chromatographic logD [1]: 5.11 | solubility [2, 9]: ≥ 80 µM | solubility [2, 10]: ≥ 80 µM | EC50 [3]: 25.6 nM | EC50 (J774 mammalian cells): > 20 µM | EC50 [4]: 1500 nM | RI [4]: 58.6

COC(=O)c1c[nH]c2cc(N3CCN(Cc4ccc(OC)cc4)CC3)ccc2c1=O [Compound 8i, Methyl 7-(4-(4-methoxybenzyl)piperazin-1-yl)-4-oxo-1,4-dihydroquinoline-3-carboxylate]
chromatographic logD [1]: 2.08 | solubility [2, 9]: ≥ 80 µM | solubility [2, 10]: 40 to 59.9 µM (≈ 16.3 to 24.4 µg/mL) | EC50 [3]: 19.9 nM | EC50 [4]: 1340 nM | RI [4]: 67.3

COC(=O)c1c[nH]c2cc(N3CCN(c4ccccc4)CC3)c(OC)cc2c1=O [Compound 8d, Methyl 6-methoxy-4-oxo-7-(4-phenylpiperazin-1-yl)-1,4-dihydroquinoline-3-carboxylate]
chromatographic logD [1]: 2.64 | solubility [2, 9]: ≥ 80 µM | solubility [2, 10]: 1 to 19.9 µM (≈ 0.393 to 7.83 µg/mL) | EC50 [3]: 37.2 nM | % Inhibition Day 6 PI (Pb-infected mice; [8]): little to moderate protection | EC50 (J774 mammalian cells): 16.8 µM

COC(=O)c1c[nH]c2cc(N3CCN(c4ccccc4)CC3)c(C)cc2c1=O [Compound 8c, Methyl 6-methyl-4-oxo-7-(4-phenylpiperazin-1-yl)-1,4-dihydroquinoline-3-carboxylate]
chromatographic logD [1]: 2.31 | solubility [2, 9]: ≥ 80 µM | solubility [2, 10]: 40 to 59.9 µM (≈ 15.1 to 22.6 µg/mL) | EC50 [3]: 45.5 nM | % Inhibition Day 6 PI (Pb-infected mice; [8]): little to moderate protection | EC50 (J774 mammalian cells): 16.7 µM | EC50 [4]: 1110 nM

COC(=O)c1c[nH]c2cc(CCN3CCN(Cc4ccc(OC)cc4)CC3)ccc2c1=O [Compound 8ae, Methyl 7-(2-(4-(4-methoxybenzyl)piperazin-1-yl)ethyl)-4-oxo-1,4-dihydroquinoline-3-carboxylate]
chromatographic logD [1]: 1.68 | solubility [2, 9]: ≥ 80 µM | solubility [2, 10]: ≥ 80 µM | EC50 [3]: 11.6 nM | EC50 (J774 mammalian cells): > 20 µM | RI [4]: >495

COC(=O)c1c[nH]c2cc(N3CCN(c4ccc(OC)cc4)CC3)ccc2c1=O [Compound 8e, Methyl 7-(4-(4-methoxyphenyl)piperazin-1-yl)-4-oxo-1,4-dihydroquinoline-3-carboxylate]
chromatographic logD [1]: 2.44 | solubility ([2]; aqueous solution, pH 2, simulated gastric fluid, pH 2.0, read-out: Solubility pH 2.0): 40 to 59.9 µM (≈ 15.7 to 23.6 µg/mL) | solubility ([2]; aqueous solution, pH 6.5, aqueous buffer, pH 6.5, read-out: Solubility pH 6.5): 20 to 39.9 µM (≈ 7.87 to 15.7 µg/mL) | EC50 [3]: 7.76 nM | EC50 (J774 mammalian cells): > 20 µM | EC50 [4]: 154 nM | RI [4]: 19.8

Methyl 7-(4-benzylpiperazin-1-yl)-4-oxo-1,4-dihydroquinoline-3-carboxylate [Compound 8b]
pEC50 ([3]; blood stage in vitro, strain W2, read-out: EC50 W2): 6.48 | pEC50 [5]: 8.24 | RI [4]: 1.31 | pEC50 ([4]; blood stage in vitro, atovaquone-resistant strain TM90-C2B, read-out: EC50 TM90-C2B): 6.37
